# Laboratory results taken from patent US20150272928A1, “INDOLE DERIVATIVES” (UNIVERSITY OF CENTRAL LANCASHIRE, priority 2012, published 2015).
# Entries after “also recorded” stand apart in the source; their conditions may differ.
# Experiments:
# U87MG cells [1] = test: MTS assay, U87MG glioma cell line; type: cell-based
# Description: (§1) 1321N1 cells were maintained in Dulbeccos's Modified Eagle's Medium (DMEM) supplemented with 10% (v/v) foetal bovine serum (FBS) and 2 mM L-glutamine, while the U87MG cell line was maintained in Essential Minimum Eagle Medium (EMEM) supplemented with 10% (v/v) FBS, 2 mM L-glutamine, 1 mM sodium pyruvate and 1% (v/v) non-essential amino acids (NEAA) (Lonza, UK) in a 37° C. humidified incubator supplied with 5% CO2. The 1321N1 and the U87MG cells were trypsinized and cultured overnight at a cell density of 3500 cells/200 μl and 4000 cells/200 μl respectively in 96-well microtitre plates (Sarstedt, UK). The following day when the cells looked 50-60% confluent, each concentration of the commercial drugs and novel compounds mentioned above were added in quadruplicates and left for incubation for 48 hours. After 48 hours, 20 μl of the pre-warmed MTS reagent (Promega, UK) was added to each of the wells and the 96-well plates were incubated at 37° C. humidified incubator supplied with 5% CO2 for 60 min. At the end of 60 min, the absorbance was recorded at 490 nm using a Tecan GENios Pro® microplate reader. The concentration of compound that inhibits 50% of cell growth (IC50) compared to untreated vehicle controls containing ≦0.5% absolute ethanol was calculated by nonlinear regression analysis. Absolute ethanol was used in the vehicle controls as indole 4 was dissolved in absolute ethanol.
# 1321N1 cells [2] = test: MTS assay, 1321N1 glioma cell line; type: cell-based; conditions: 48 h; for activity against the 1321N1 cell line (in words): MTS assay
# Description: as §1
# U87MG cells [3] = test: Reactive oxygen species detection assay (carboxy-H2DCFDA, flow cytometry), U87MG cells; type: cell-based; conditions: 500 μM, 1 h, positive control TBHP 100 μM
# Description: (§2) The inventors hypothesised that the active indoles were acting through a radical-based mechanism, which was most likely related to the generation of reactive oxygen species (ROS).^[6] As such, the inventors chose the Image-iT™ LIVE Green Reactive Oxygen Species Detection Kit from Invitrogen Ltd, UK, which is able to detect reactive oxygen species (ROS) in live cells, to assess selected indoles. Oxidatively stressed cells, when labeled with the carboxy-H2DCFDA dye provided, should generate fluorescence which is detectable using a confocal microscope and flow cytometry. Various assays were therefore performed in accordance with the following protocols.
# (§3) 1321N1 cells were maintained in Dulbeccos's Modified Eagle's Medium (DMEM) supplemented with 10% (v/v) foetal bovine serum (FBS) and 2 mM L-glutamine, while the U87MG cell line was maintained in Essential Minimum Eagle Medium (EMEM) supplemented with 10% (v/v) FBS, 2 mM L-glutamine, 1 mM sodium pyruvate and 1% (v/v) non-essential amino acids (NEAA) (Lonza, UK) in a 37° C. humidified incubator supplied with 5% CO2. The 1321N1 and the U87MG cells were trypsinized and cultured overnight at a cell density of 10^4 cells/well/ml and were seeded in 6 well plates (BD Biosciences, UK) and were allowed to attach overnight. 2 ml of this cell suspension was added into each well resulting into a final concentration of 20,000 cells/well. On the day of experiment, cells were labelled with sufficient amount of 25 μM carboxy-H2DCFDA dye and were incubated for 30 min at 37° C., protected from light. Cells were then treated with 500 μM of indole 4 and positive control [tert-butyl hydroperoxide (TBHP)](100 μM) and negative control (indole 2) (500 μM) for 60 mins. Cells were gently washed with Hank[…]s balanced salt solution (HBSS) warm buffer three times and then trypsinized, centrifuged and resuspended in 300 μl PBS. Cells were filtered through cell strainer caps (35 μm mesh) to obtain a single cell suspension and analysed using a FACSAria flow cytometer (BD Biosciences). The untreated vehicle controls contained ≦0.5% absolute ethanol and DMSO as indole 4 was dissolved in absolute ethanol while TBHP and indole 2 were dissolved in DMSO.
# (§4) In the event, to confirm and quantify the amount of fluorescence (due to ROS) produced, glioma cell lines 1321N1 and U87MG were seeded in separate 6 well plates and were left overnight to attach. On the day of the experiment the carboxy-H2DCFDA dye was added to the cells which were incubated for 30 min in the dark. Indoles 2, 3, 4 and 7 (500 μM) were then added, in separate experiments, and left for 1 h incubation. Cells were thoroughly washed at each step to prevent background staining and they were imaged immediately after incubation.
# 1321N1 cells [4] = test: Reactive oxygen species detection assay (carboxy-H2DCFDA, flow cytometry), 1321N1 cells; type: cell-based; conditions: for ROS induction / oxidative stress: shift of H2DCFDA fluorescence signal compared to control: 1321N1, 500 μM, 1 h, flow cytometry, positive control TBHP 100 μM
# Description: as §2, §3, §4
# [5] = Stability under acidic conditions; type: physicochemical
# 1321N1 cells [6] = test: MTS assay, 1321N1 glioma cell line; type: cell-based; conditions: 1321N1, co-treatment with ascorbic acid
# 1321N1 cells [7] = test: Acridine orange assay of acidic vesicular organelle (AVO) formation, 1321N1 cells; type: cell-based; conditions: 1321N1, 500 μM, 1 h, flow cytometry
# Description: (§5) 1321N1 cells were maintained in Dulbeccos's Modified Eagle's Medium (DMEM) supplemented with 10% (v/v) foetal bovine serum (FBS) and 2 mM L-glutamine, while the U87MG cell line was maintained in Essential Minimum Eagle Medium (EMEM) supplemented with 10% (v/v) FBS, 2 mM L-glutamine, 1 mM sodium pyruvate and 1% (v/v) non-essential amino acids (NEAA) (Lonza, UK) in a 37° C. humidified incubator supplied with 5% CO2. The 1321N1 and the U87MG cells were trypsinized and cultured overnight at a cell density of 10^4 cells/well/ml and were seeded in 6 well plates (BD Biosciences, UK) and were allowed to attach overnight. 2 ml of this cell suspension was added into each well resulting into a final concentration of 20,000 cells/well. After 24 h of incubation, cells were treated with 500 μM of indole 4 for 60 min. After 60 min incubation with the compound the cells were stained with 3 μM acridine orange and incubated for 15 min at 37° C., protected from light. […] Cells were filtered through cell strainer caps (35 μm mesh) to obtain a single cell suspension and analysed using a FACSAria flow cytometer (BD Biosciences). […]
# (§6) The glioma cells were seeded in 6 well plates and were left overnight to attach. The cells were then treated with indole 4 for 1 h, stained with acridine orange for 15 min, and were analysed by flow cytometry.
# [8] = tested on: primary cell culture (IN859); test: IC50 against primary cell culture IN859 from a glioblastoma multiforme patient biopsy; type: cell-based; conditions: cells from a biopsy from a glioblastoma multiforme patient
# Description: Based on these preliminary results the inventors were keen to discover if the effects would also be observed against a primary cell culture (IN859) from cells obtained from a biopsy from a glioblastoma multiforme patient.
# U87MG cells [9] = test: Acridine orange assay of acidic vesicular organelle (AVO) formation, U87MG cells; type: cell-based; conditions: 500 μM, 1 h, flow cytometry
# Description: as §5, §6
# [10] = Homo sapiens, U-87 MG, 48 h, average and standard deviation of four repeats, dash = IC50 value not reached
# [11] = Homo sapiens, 1321-N1, average and standard deviation of four repeats, dash = IC50 value not reached
# [12] = 48 h, average and standard deviation of four repeats, dash = IC50 value not reached
# [13] = average and standard deviation of four repeats, dash = IC50 value not reached
Structure (SMILES),IC50 (U87MG cells [1]; [10]),IC50 (1321N1 cells [2]; [11]),activity against the 1321N1 cell line (in words) (1321N1 cells [2]),ROS induction / oxidative stress: shift of H2DCFDA fluorescence signal compared to control (U87MG cells [3]),ROS induction / oxidative stress: shift of H2DCFDA fluorescence signal compared to control (1321N1 cells [4]),also measured
"OCc1c[nH]c2ccccc12 [Compound 1, (1H-indol-3-yl)methanol]",585 ± 2 µM,374 ± 2 µM,active,–,–,–
"O=Cc1c(-c2ccccc2)[nH]c2ccccc12 [Compound 6, 2-phenyl-1H-indole-3-carbaldehyde]",–,–,inactive,–,–,"activity against the U87MG cell line (in words) (U87MG cells [1]; MTS assay, 48 h): inactive"
"COc1ccccc1-c1cc2ccccc2[nH]1 [Compound 7, 2-(2-methoxyphenyl)-1H-indole, reference compound]",–,–,inactive,no shift was observed,no shift was observed,"activity against the U87MG cell line (in words) (U87MG cells [1]; MTS assay, 48 h): inactive"
N.N.[Cl][Pt][Cl] [cisplatin],–,–,active,–,–,IC50 (U87MG cells [1]; [12]): 310 ± 4 µM; IC50 (1321N1 cells [2]; [13]): 11 ± 2 µM

# Now from value to compound, other results behind:
IC50 (U87MG cells [1]; [10]),IC50 (1321N1 cells [2]; [11]),Structure (SMILES),activity against the 1321N1 cell line (in words) (1321N1 cells [2]),ROS induction / oxidative stress: shift of H2DCFDA fluorescence signal compared to control (U87MG cells [3]),ROS induction / oxidative stress: shift of H2DCFDA fluorescence signal compared to control (1321N1 cells [4]),also measured
> 400 µM,–,"c1ccc(-c2cc3ccccc3[nH]2)cc1 [Compound 2, 2-phenyl-1H-indole]",not able to inhibit the growth,no shift was observed,no shift was observed,"MTS assay IC50 values U87MG (U87MG cells [1]; [12]): does not reach its IC50; inhibition at 400 µM (U87MG cells [1]; Homo sapiens, U-87 MG, U87MG, at 400 μM, 48 h, read-out: maximum growth inhibition): 7%; MTS assay IC50 values 1321N1 (1321N1 cells [2]; [13]): does not reach its IC50"
176 ± 1 µM,111 ± 1 µM,"OCc1c(-c2ccccc2)[nH]c2ccccc12 [Compound 3, (2-phenyl-1H-indol-3-yl)methanol]",active,shift of the fluorescence signal; also recorded: to a greater level than the positive control,shift of the fluorescence signal; also recorded: to a greater level than the positive control,stability under acidic conditions [5]: slightly unstable
379 ± 4 µM,445 ± 4 µM,"Oc1ccccc1-c1cc2ccccc2[nH]1 [Compound 4, 2-(1H-indol-2-yl)phenol]",active,shift of the fluorescence signal; also recorded: to a greater level than the positive control,shift of the fluorescence signal; also recorded: to a greater level than the positive control,"cell viability in the presence of ascorbic acid (1321N1 cells [6]): cell viability was unaffected; AVO formation (acridine orange red fluorescence) (1321N1 cells [7]): increased amount of red fluorescence; cell viability in the presence of ascorbic acid (U87MG cells [1]; MTS assay, U87MG, co-treatment with ascorbic acid): cell viability was unaffected; level of fluorescence (ROS) on co-treatment with ascorbic acid (1321N1 cells [4]; 1321N1, indole 4 500 μM plus ascorbic acid 100 μM, data not shown): less than the vehicle control cells alone; IC50 [8]: 398 ± 3 µM; AVO formation (acridine orange red fluorescence) (U87MG cells [9]): increased amount of red fluorescence"
